Measured values reported in patent publication US7781191B2, “Treatment of biomass to obtain a target chemical” (E. I. du Pont de Nemours and Company, priority 2005, dated 2010).

System: Z. mobilis strain 8b
Conditions: fermentation medium pH 6.0, 30° C., 150 rpm; supplemented with 6 g/L acetamide or 7.2 g/L acetic acid vs unsupplemented control; FIG. 1
Text: Fermentation medium was composed of 10 g/L yeast extract, 2 g/L KH2PO4, 70 g/L glucose, 40 g/L xylose and 0.1 M MES buffer.

SMILES | final density / cell yield (as measured by dry cell mass) of Z. mobilis | growth rate of Z. mobilis
CC(N)=O [acetamide] | no influence | no influence
CC(=O)O [acetic acid] | – | reduced growth rate
